Experimental data reported in patent US10765114B2, “4-amino-6-(pyridyl and 2-substitutedphenyl)-picolinates and 6-amino-2-(pyridyl and 2-substitutedphenyl)-pyrimidine-4-carboxylates and their use as herbicides” (Dow AgroSciences LLC, priority 2013, dated 2020).
Where two headings read alike, the source gives them in different places.

Tests used:
[1] = tested on: Key Broadleaf Weed and Crop Species; experiment: Post-Emergent Test II (Table 5); format: in vivo; settings: post-emergence, 336 h; for pest or weed control at 140 g/ha: application rate 140 (kg ai/ha; footnote: g ai/ha); for pest or weed control at 70 g/ha: application rate 70 (kg ai/ha; footnote: g ai/ha)
Method: (§1) Seeds or nutlets of the desired test plant species were planted in Sun Gro Metro-Mix® 360 planting mixture, which typically has a pH of 6.0 to 6.8 and an organic matter content of about 30 percent, in plastic pots with a surface area of 64 square centimeters. When required to ensure good germination and healthy plants, a fungicide treatment and/or other chemical or physical treatment was applied. The plants were grown for 7-21 days in a greenhouse with an approximate 15 h photoperiod which was maintained at about 23-29° C. during the day and 22-28° C. during the night. Nutrients and water were added on a regular basis and supplemental lighting was provided with overhead metal halide 1000-Watt lamps as necessary. The plants were employed for testing when they reached the first or second true leaf stage.
(§2) A weighed amount, determined by the highest rate to be tested, of each test compound was placed in a 25 mL glass vial and was dissolved in 4 mL of a 97:3 v/v mixture of acetone and DMSO to obtain concentrated stock solutions. […] The concentrated stock solutions obtained were diluted with 20 mL of an aqueous mixture containing acetone, water, isopropyl alcohol, DMSO, Atplus 411F crop oil concentrate, and Triton® X-155 surfactant in a 48.5:39:10:1.5:1.0:0.02 v/v ratio to obtain spray solutions containing the highest application rates. Additional application rates were obtained by serial dilution of 12 mL of the high rate solution into a solution containing 2 mL of 97:3 v/v mixture of acetone and DMSO and 10 mL of an aqueous mixture containing acetone, water, isopropyl alcohol, DMSO, Atplus 411F crop oil concentrate, and Triton X-155 surfactant in a 48.5:39:10:1.5:1.0:0.02 v/v ratio to obtain ½×, ¼×, ⅛× and 1/16× rates of the high rate. Compound requirements are based upon a 12 mL application volume at a rate of 187 liters per hectare (L/ha). Formulated compounds were applied to the plant material with an overhead Mandel track sprayer equipped with 8002E nozzles calibrated to deliver 187 L/ha over an application area of 0.503 square meters at a spray height of 18 inches (43 cm) above the average plant canopy height. Control plants were sprayed in the same manner with the solvent blank.
(§3) The treated plants and control plants were placed in a greenhouse as described above and watered by subirrigation to prevent wash-off of the test compounds. After 14 days, the condition of the test plants as compared with that of the untreated plants was determined visually and scored on a scale of 0 to 100 percent where 0 corresponds to no injury and 100 corresponds to complete kill and presented as indicated in Table A. Some of the compounds tested, application rates employed, plant species tested, and results are given in Table 5.

[2] = tested on: Key Grass and Sedge Weeds as well as Grass Crops; experiment: Post-Emergent Test II (Table 6); format: in vivo; settings: for pest or weed control at 140 g/ha: post-emergence, 336 h, 14 days after application; for Visual Growth Reduction (%) 14 Days After Application, CYPSS: CYPSS (CYPES: yellow nutsedge, Cyperus esculentus); for Visual Growth Reduction (%) 14 Days After Application, ECHSS: ECHSS (ECHCG: barnyardgrass, Echinochloa crus-galli); for Visual Growth Reduction (%) 14 Days After Application, ORYSS: ORYSS (ORYSA: rice, Oryza sativa); for Visual Growth Reduction (%) 14 Days After Application, ORYSS / Visual Growth Reduction (%) 14 Days After Application, TRZSS / Visual Growth Reduction (%) 14 Days After Application, ZEAMX: crop; for Visual Growth Reduction (%) 14 Days After Application, SORVU: SORVU: johnsongrass (Sorghum vulgare); for Visual Growth Reduction (%) 14 Days After Application, TRZSS: TRZSS (TRZAS: wheat, spring, Triticum aestivum)
Method: as §1, §2, §3

[3] = Abutilon theophrasti, ABUTH: velvetleaf (Abutilon theophrasti), read-out: Visual Growth Reduction (%) 14 Days After Application ABUTH
[4] = Amaranthus retroflexus, AMARE: redroot pigweed (Amaranthus retroflexus), read-out: Visual Growth Reduction (%) 14 Days After Application AMARE
[5] = Brassica napus, BRSSS: oilseed rape, canola (Brassica napus), read-out: Visual Growth Reduction (%) 14 Days After Application BRSSS
[6] = Chenopodium album, CHEAL: lambsquarters (Chenopodium album), read-out: Visual Growth Reduction (%) 14 Days After Application CHEAL
[7] = Euphorbia heterophylla, EPHHL: wild poinsettia (Euphorbia heterophylla), read-out: Visual Growth Reduction (%) 14 Days After Application EPHHL
[8] = Helianthus annuus, HELAN: sunflower (Helianthus annuus), read-out: Visual Growth Reduction (%) 14 Days After Application HELAN
[9] = Viola tricolor, VIOTR: wild pansy (Viola tricolor), read-out: Visual Growth Reduction (%) 14 Days After Application VIOTR

Nc1c(F)c(-c2ccc(C(F)(F)F)nc2F)nc(C(=O)O)c1Cl [Compound 26]
45 to 59%: pest or weed control at 140 g/ha [1, 8]
0 to 29%: pest or weed control at 140 g/ha [1, 3] | pest or weed control at 140 g/ha [1, 4] | pest or weed control at 140 g/ha [1, 5] | pest or weed control at 140 g/ha [1, 6] | pest or weed control at 140 g/ha [1, 7] | pest or weed control at 140 g/ha [1, 9] | pest or weed control at 140 g/ha ([2]; CYPSS, 140 g ai/ha, read-out: Visual Growth Reduction (%) 14 Days After Application CYPSS) | pest or weed control at 140 g/ha ([2]; DIGSA: crabgrass (Digitaria sanguinalis), 140 g ai/ha, read-out: Visual Growth Reduction (%) 14 Days After Application DIGSA) | pest or weed control at 140 g/ha ([2]; ECHSS, 140 g ai/ha, read-out: Visual Growth Reduction (%) 14 Days After Application ECHSS) | pest or weed control at 140 g/ha ([2]; ORYSS (crop), 140 g ai/ha, read-out: Visual Growth Reduction (%) 14 Days After Application ORYSS) | pest or weed control at 140 g/ha ([2]; SETFA: giant foxtail (Setaria faberi), 140 g ai/ha, read-out: Visual Growth Reduction (%) 14 Days After Application SETFA) | pest or weed control at 140 g/ha ([2]; SORVU: grain sorghum (Sorghum vulgare), 140 g ai/ha, read-out: Visual Growth Reduction (%) 14 Days After Application SORVU) | pest or weed control at 140 g/ha ([2]; TRZSS (crop), 140 g ai/ha, read-out: Visual Growth Reduction (%) 14 Days After Application TRZSS) | pest or weed control at 140 g/ha ([2]; ZEAMX: maize, corn (Zea mays), 140 g ai/ha, read-out: Visual Growth Reduction (%) 14 Days After Application ZEAMX)

COC(=O)c1nc(-c2ccc(Cl)c(F)c2Cl)nc(N)c1OC [Compound 42, Methyl 6-amino-2-(2,4-dichloro-3-fluorophenyl)-5-methoxypyrimidine-4-carboxylate]
F (30-44): Visual Growth Reduction (%) 14 Days After Application, SORVU ([2]; 140 g ai/ha) | Visual Growth Reduction (%) 14 Days After Application, TRZSS ([2]; 70 g ai/ha)
60 to 74%: pest or weed control at 140 g/ha [1, 7] | pest or weed control at 70 g/ha [1, 9] | pest or weed control at 140 g/ha [1, 9]
G (0-29): Visual Growth Reduction (%) 14 Days After Application, DIGSA ([2]; DIGSA: crabgrass (Digitaria sanguinalis), 70 g ai/ha) | Visual Growth Reduction (%) 14 Days After Application, DIGSA ([2]; DIGSA: crabgrass (Digitaria sanguinalis), 140 g ai/ha) | Visual Growth Reduction (%) 14 Days After Application, ECHSS ([2]; 70 g ai/ha) | Visual Growth Reduction (%) 14 Days After Application, ECHSS ([2]; 140 g ai/ha) | Visual Growth Reduction (%) 14 Days After Application, ORYSS ([2]; 70 g ai/ha) | Visual Growth Reduction (%) 14 Days After Application, ORYSS ([2]; 140 g ai/ha) | Visual Growth Reduction (%) 14 Days After Application, SETFA ([2]; SETFA: giant foxtail (Setaria faberi), 70 g ai/ha) | Visual Growth Reduction (%) 14 Days After Application, SETFA ([2]; SETFA: giant foxtail (Setaria faberi), 140 g ai/ha) | Visual Growth Reduction (%) 14 Days After Application, SORVU ([2]; 70 g ai/ha) | Visual Growth Reduction (%) 14 Days After Application, ZEAMX ([2]; ZEAMX: maize, corn (Zea mays), 70 g ai/ha) | Visual Growth Reduction (%) 14 Days After Application, ZEAMX ([2]; ZEAMX: maize, corn (Zea mays), 140 g ai/ha)
85 to 94%: pest or weed control at 70 g/ha [1, 8] | pest or weed control at 140 g/ha [1, 8]
30 to 44%: pest or weed control at 70 g/ha [1, 7]
E (45-59): Visual Growth Reduction (%) 14 Days After Application, TRZSS ([2]; 140 g ai/ha)
95 to 100%: pest or weed control at 70 g/ha [1, 3] | pest or weed control at 140 g/ha [1, 3] | pest or weed control at 70 g/ha [1, 4] | pest or weed control at 140 g/ha [1, 4] | pest or weed control at 70 g/ha [1, 5] | pest or weed control at 140 g/ha [1, 5] | pest or weed control at 70 g/ha [1, 6] | pest or weed control at 140 g/ha [1, 6]
A (95-100): Visual Growth Reduction (%) 14 Days After Application, CYPSS ([2]; 70 g ai/ha) | Visual Growth Reduction (%) 14 Days After Application, CYPSS ([2]; 140 g ai/ha)
